Data published in patent US11833137B2, “Substituted chromenones, IRE1 inhibitors, and methods of using same” (The Wistar Institute, priority 2018, dated 2023).

Key:
[1] = system: Arg-1 in CD11b+/Ly6G+ granulocytic MDSCs; assay: Arg-1 expression in granulocytic MDSCs of treated mice; type: in vivo, mouse; details: spleens of injected MD4+/−/Eμ-TCL1+/+ mice
[2] = system: CD11b+/Ly6G+ granulocytic MDSCs; assay: MDSC-mediated T cell suppression assay; type: in vivo, mouse; details: OT-I splenocytes, OVA peptide
Procedure: FIGS. 24A-24J illustrate the finding that targeting XBP-1s in CLL cells of MD4^+/−/Eμ-TCL1^+/+ mice leads to reduced production of sIgM, and decreased numbers and function of granulocytic MDSCs. […]. Gated CD11c−/CD11b+ populations were analyzed for Ly6C^intermediate/Ly6G+ granulocytic MDSCs and Ly6C+/Ly6G− monocytic MDSCs. (FIG. 24C) Percentages of CD11b+ myeloid cells in the blood of MD4^+/−/Eμ-TCL1^+/+ and XBP-1^KO/MD4^+/−/Eμ-TCL1^+/+ mice were plotted as mean±SEM. (FIG. 24D) Percentages of CD11b+/Ly6C^intermediate/Ly6G+ granulocytic MDSCs in the blood of MD4^+/−/Eμ-TCL1^+/+ and XBP-1^KO/MD4^+/−/Eμ-TCL1^+/+ mice were plotted as mean±SEM. […] Gated CD11b+/Ly6C^intermediate/Ly6G+ granulocytic MDSCs were analyzed for the expression of Arg-1. (FIG. 24F) Mean fluorescence intensity (MFI) of Arg-1 in gated CD11b+/Ly6C^intermediate/Ly6G+ granulocytic MDSCs from spleens of 5 MD4^+/−/Eμ-TCL1^+/+ and 5 XBP-1^KO/MD4^+/−/Eμ-TCL1^+/+ mice was plotted as mean±SEM. […] The ^3H-thymidine uptake was measured, and the percentages of proliferation were calculated by comparing to the positive control and plotted as mean±SEM. […] The percentage of CLL cells in PBMCs for each mouse was determined by flow cytofluorometry on day 6 and day 13, and compared with the CLL burden data of the mouse on day 0 (100%). […]

WaC3 cells = details: cited from earlier work
CLL = details: mouse, in vivo; cited from earlier work

Compound: O=c1oc2c(C3OCCCO3)c(O)ccc2c2c1CNCC2 [Compound 4, 7-(1,3-dioxan-2-yl)-8-hydroxy-1,2,3,4-tetrahydro-5H-chromeno[3,4-c]pyridin-5-one]
- Arg-1 levels in granulocytic MDSCs versus DMSO-injected mice [1]: expressed decreased levels of Arg-1
- suppression of T cell proliferation by MDSCs from injected mice [2]: lost their immunosuppressive function
- sensitivity of WaC3 cells (WaC3 cells): sensitive
- growth of CLL (CLL): retard the growth of CLL
